Laboratory results reported in PMC3038857, “Using Nuclear Receptor Activity to Stratify Hepatocarcinogens” (PLoS ONE, 2011).

What was measured:
RXRa (RXRA) = target: T1, RXRa (RXRA) (Homo sapiens, UniProt P19793); assay: NCGC_RXRa_Agonist: GAL4 BLAM Reporter gene assay: RXRa; type: cell-based; conditions: agonist mode
T1 sequence (P19793 227-462 limits assumed): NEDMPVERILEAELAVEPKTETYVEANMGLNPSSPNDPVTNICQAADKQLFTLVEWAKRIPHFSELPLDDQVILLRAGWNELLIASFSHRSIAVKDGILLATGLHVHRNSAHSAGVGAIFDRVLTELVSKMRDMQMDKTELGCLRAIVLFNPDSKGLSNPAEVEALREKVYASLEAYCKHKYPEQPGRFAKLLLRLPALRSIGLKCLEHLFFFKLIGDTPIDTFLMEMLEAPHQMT
Method: (§1) These assays measure binding constants and enzyme inhibition values for nuclear receptors. The targets include [drawing 67] , [drawing 68] , [drawing 69] , [drawing 70] , [drawing 71] , [drawing 72] , [drawing 73] , [drawing 74] , [drawing 75] and [drawing 76] . Each of the nuclear receptor targets was measured in agonist mode. Assays were run at the NIH Chemical Genomics Center (Rockville, MD).
(§2) Cell-based HTS Assays: These assays measuring binding constants and enzyme inhibition values for nuclear receptors. The targets include AR, ER, FXR, LXR, PPARα, PPARδ, PPARγ, RXRα, RXRβ and PXR. Each of the nuclear receptor targets was measured in both agonist and antagonist mode, but the antagonist data is still undergoing analysis due to possible interference between cytotoxicity and assay activity, so antagonist mode data were not used in the present analysis. Assays were run at the NIH Chemical Genomics Center (Rockville, MD) as part of the Tox21 collaboration. […] The R^2 was required to be ≥0.5. Values where only the highest concentration exceeded 50% activity were excluded to eliminate weak or false positives. Detailed description of the methods, data and analysis methods for this dataset will be presented in a separate publication.

[1] = target: T2, PPARG (peroxisome proliferator-activated receptor gamma) (Homo sapiens, UniProt P37231); assay: ATG_PPARg_TRANS: Factorial reporter gene assay (HepG2); type: cell-based; conditions: HepG2 reporter
T2 construct: expressed in transfected cells; host or cells: HepG2
T2 sequence (P37231 1-505): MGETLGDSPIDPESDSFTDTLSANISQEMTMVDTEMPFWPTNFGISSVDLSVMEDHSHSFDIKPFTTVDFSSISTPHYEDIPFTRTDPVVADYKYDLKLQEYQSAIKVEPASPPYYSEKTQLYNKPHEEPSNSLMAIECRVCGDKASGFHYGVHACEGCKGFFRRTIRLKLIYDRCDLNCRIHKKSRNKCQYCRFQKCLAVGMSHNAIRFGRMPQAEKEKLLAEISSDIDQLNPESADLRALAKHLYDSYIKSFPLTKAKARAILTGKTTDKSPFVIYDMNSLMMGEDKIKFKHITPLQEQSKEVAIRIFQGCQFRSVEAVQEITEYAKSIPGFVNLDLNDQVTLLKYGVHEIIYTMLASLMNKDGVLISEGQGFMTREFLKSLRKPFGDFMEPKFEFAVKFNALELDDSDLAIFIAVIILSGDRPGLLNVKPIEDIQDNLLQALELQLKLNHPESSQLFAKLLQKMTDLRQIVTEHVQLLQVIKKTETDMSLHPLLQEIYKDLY
How it was run: (§3)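 Mammalian one-hybrid trans reporters (25 MRTUs) measured ERRg, FXR and PPARg; PXRE used cis reporters from a 48-site MRTU library. Both were run in HepG2. Dosing: seven concentrations, MTC as the highest, three-fold dilution series.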

ABCB1 = assay: CLZD_ABCB1: Change in expression of ABCB1 (primary human hepatocytes); type: cell-based; conditions: 24 hr
How it was run: (§4)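 Read-out: mRNA change by multiplexed quantitative nuclease protection assay. Primary human hepatocytes; 5 concentrations, 0.004-40 µM; exposures 6, 24, 48 hr.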

ABCB11 = assay: CLZD_ABCB11: Change in expression of ABCB11 (primary human hepatocytes); type: cell-based; conditions: 24 hr
Method: This is a collection of multiplexed gene expression assays focused on Phase I and II xenobiotic metabolizing enzymes and transporters. Human primary cell cultures were treated with chemicals at 5 concentrations (0.004-40 [drawing 42] M) for 6, 24 and 48 hr. Concentration- and time-response profiles of chemicals were measured by the expression of key nuclear receptor target genes, activities of CYP1A enzymes (EROD), and cell morphology. Fourteen gene targets were monitored by quantitative nuclease protection assay including: six representative cytochrome P-450 genes, four hepatic transporters, three Phase II conjugating enzymes, and one endogenous metabolism gene involved in cholesterol synthesis. The target genes associated with nuclear receptor pathways are as follows: [drawing 43] and [drawing 44] with [drawing 45]; [drawing 46] , [drawing 47] , [drawing 48] , [drawing 49] , [drawing 50] and [drawing 51] with [drawing 52]; [drawing 53] , [drawing 54] , [drawing 55] and [drawing 56] with [drawing 57]; [drawing 58] with [drawing 59]; and [drawing 60] with [drawing 61] . Assays were run in primary human hepatocyte cultures by CellzDirect Invitrogen Inc. (Durham, NC), in collaboration with EPA.
Multiplexed Gene Expression in Human Primary Hepatocytes: This is a collection of multiplexed gene expression assays focused on Phase I and II metabolic enzymes and transporters. […] Fourteen gene targets were monitored by quantitative nuclease protection assay: six representative cytochrome P450 genes, four hepatic transporters, three Phase II conjugating enzymes, and one endogenous metabolism gene involved in cholesterol synthesis. Cells were exposed at 5 concentrations (0.004-40 µM) for 6, 24 or 48 hr. Gene targets are sentinels for five nuclear receptor signaling pathways: AhR, CAR, PXR, FXR, and PPARα. All gene are associated with nuclear receptor pathways: CYP1A1 and CYP1A2 with AHR; ABCB1, ABCG2, CYP2B6, CYP2C9, CYP2C19 and UGT1A1 with CAR; CYP3A4, GSTA2, SLCO1B1 and SULT2A1 with PXR; HMGCS2 with PPARA; and ABCB11 with FXR. […] Detailed description of the methods, data and analysis methods for this dataset will be presented in a separate publication.

CYP1A1 = assay: CLZD_CYP1A1: Change in expression of CYP1A1 (primary human hepatocytes); type: cell-based; conditions: 24 hr
How it was run: as §4

CYP1A2 = assay: CLZD_CYP1A2: Change in expression of CYP1A2 (primary human hepatocytes); type: cell-based; conditions: 24 hr
How it was run: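 Chemicals are tested in human hepatocyte primary cultures over 0.004-40 µM (5 concentrations) for 6, 24 or 48 hr, and concentration- and time-dependent transcript changes are read by quantitative nuclease protection assay.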

CYP3A4 = assay: CLZD_CYP3A4: Change in expression of CYP3A4 (primary human hepatocytes); type: cell-based; conditions: 24 hr
How it was run: as §4

PXR (NR1I2) [2] = target: T3, PXR (NR1I2) (Homo sapiens, UniProt O75469); assay: NVS_NR_hPXR: Human PXR Fluormone PXR (SXR) green (cell-free HTS); type: binding
T3 sequence (O75469 1-434): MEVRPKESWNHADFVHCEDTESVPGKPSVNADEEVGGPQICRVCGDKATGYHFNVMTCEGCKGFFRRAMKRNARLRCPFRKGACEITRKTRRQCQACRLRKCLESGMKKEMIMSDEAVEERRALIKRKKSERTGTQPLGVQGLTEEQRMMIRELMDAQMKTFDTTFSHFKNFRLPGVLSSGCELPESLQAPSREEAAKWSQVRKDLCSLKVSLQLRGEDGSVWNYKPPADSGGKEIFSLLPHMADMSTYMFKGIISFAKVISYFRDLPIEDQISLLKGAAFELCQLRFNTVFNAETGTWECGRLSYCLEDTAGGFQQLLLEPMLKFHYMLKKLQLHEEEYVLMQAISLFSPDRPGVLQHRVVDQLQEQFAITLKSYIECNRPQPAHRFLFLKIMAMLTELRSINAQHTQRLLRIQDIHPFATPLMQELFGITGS
How it was run: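 Responses were normalized to same-plate solvent controls as percent of neutral control. AC50 values came from Hill-equation fits of concentration-response curves.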

Rat Liver [3] = conditions: chronic study, rat liver; ref ToxRefDB; cited from earlier work
Rat Liver [4] = conditions: chronic study, rat liver; ref ToxRefDB; cited from earlier work; remark: listed apart in the source
Rat Liver [5] = conditions: chronic study, rat liver; ref ToxRefDB; cited from earlier work; remark: listed apart in the source
CAR (NR1I3) = target: T4, CAR (NR1I3) (Homo sapiens, UniProt Q14994); assay: ATG_PBREM_CIS: Factorial reporter gene assay (HepG2); type: cell-based; design: endogenous in cells; host or cells: HepG2; conditions: HepG2 reporter
T4 sequence (Q14994 1-352): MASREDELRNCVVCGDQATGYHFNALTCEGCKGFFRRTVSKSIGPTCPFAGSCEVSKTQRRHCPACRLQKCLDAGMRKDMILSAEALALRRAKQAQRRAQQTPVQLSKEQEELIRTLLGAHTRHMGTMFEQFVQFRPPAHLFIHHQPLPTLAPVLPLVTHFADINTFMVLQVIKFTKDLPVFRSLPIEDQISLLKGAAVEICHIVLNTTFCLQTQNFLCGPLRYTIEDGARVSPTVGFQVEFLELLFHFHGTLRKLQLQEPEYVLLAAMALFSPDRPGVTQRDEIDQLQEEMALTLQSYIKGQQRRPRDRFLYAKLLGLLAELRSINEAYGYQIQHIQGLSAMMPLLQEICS
Method: A multiple reporter transcription unit (MRTU) library consisting of 48 transcription factor binding sites was transfected into the HepG2 human liver hepatoma cell line. In addition to the cis-acting reporter genes (CIS), a modification of the approach was used to generate a trans-system (TRANS) with a mammalian one-hybrid assay consisting of an additional 25 MRTU library reporting the activity of nuclear receptor super-family members. […] These assays were performed by Attagene Inc. (Morrisville NC) under contract to EPA.
In addition to the cis-acting reporter genes (CIS), a modification of the approach was used to generate a trans-system (TRANS) with a mammalian one-hybrid assay consisting of an additional 25 MRTU library reporting the activity of nuclear receptor super-family members. […] Chemicals were then tested in the CIS and TRANS assays at seven concentrations starting at the MTC and followed by three-fold serial dilutions. These assays were performed by Attagene Inc. (Morrisville NC) under contract to EPA. Detailed description of the methods, data and analysis methods for this dataset will be presented in a separate publication.

PXR (NR1I2) [6] = target: T3, PXR (NR1I2); assay: ATG_PXRE_CIS: Factorial reporter gene assay (HepG2); type: cell-based; design: endogenous in cells; host or cells: HepG2; conditions: HepG2 reporter
How it was run: as §3

CYP2B6 = assay: CLZD_CYP2B6: Change in expression of CYP2B6 (primary human hepatocytes); type: cell-based; conditions: 24 hr
How it was run: as §4

PPARg (PPARG) = target: T5, PPARg (PPARG) (Homo sapiens, UniProt P37231); assay: NCGC_PPARg_Agonist: GAL4 BLAM Reporter gene assay: PPARg; type: cell-based; design: expressed in transfected cells; host or cells: HEK293; conditions: agonist mode
T5 sequence (P37231 1-505): T2 sequence (P37231 1-505)
Method: as §1, §2

In the case of `OCCOc1ccccc1` [r243], the NCGC_RXRa_Agonist (RXRa (RXRA)) was 4.774.
For `COC(=O)N(OC)c1ccccc1COc1ccn(-c2ccc(Cl)cc2)n1` [r270], the ATG_PPARg_TRANS [1] was 6.119, the CLZD_ABCB1_24 (ABCB1) was 5.275 and the CLZD_ABCB11_24 (ABCB11) was 5.366. The CLZD_CYP1A1_24 (CYP1A1) was 6.198, the CLZD_CYP1A2_24 (CYP1A2) was 6.309 and the CLZD_CYP3A4_24 (CYP3A4) was 5.335. The NVS_NR_hPXR (PXR (NR1I2) [2]) was 5.183, the CHR_Rat_Liver_1_AnyLesion (Rat Liver [3]) was 6 and the CHR_Rat_Liver_2_PreneoplasticLesion (Rat Liver [4]) was 0. The CHR_Rat_Liver_3_NeoplasticLesion (Rat Liver [5]) was 0, the ATG_PBREM_CIS (CAR (NR1I3)) was 5.658 and the ATG_PXRE_CIS (PXR (NR1I2) [6]) was 5.62.
Work on `Fc1ccc(Oc2ccnc3cc(Cl)cc(Cl)c23)cc1` [r277] yielded an ATG_PPARg_TRANS [1] of 5.18, a CLZD_CYP1A1_24 (CYP1A1) of 5.128 and a CLZD_CYP1A2_24 (CYP1A2) of 5.172. The CLZD_CYP2B6_24 (CYP2B6) was 4.999, the CHR_Rat_Liver_1_AnyLesion (Rat Liver [3]) was 0 and the CHR_Rat_Liver_2_PreneoplasticLesion (Rat Liver [4]) was 0. For the same compound, the CHR_Rat_Liver_3_NeoplasticLesion (Rat Liver [5]) was 0 and the NCGC_PPARg_Agonist (PPARg (PPARG)) was 5.174.
